Experimental data published in US20070072242A1, “Immunoassay method and kit to leucomalachite green and malachite green” (Randox Laboratories Limited, priority 2005, published 2007).

What was measured:
[1] = tested on: Ig fraction of the antiserum raised to immunogen II (hapten A-BTG); experiment: competitive ELISA microtiter plate assay, antiserum to immunogen II with Conjugate II (hapten C-HRP); format: binding, sheep; conditions: for % CR (percentage cross-reactivity based on specificity to leucomalachite green) / IC50 (standard concentration which produces 50% B/B0): Conjugate II (hapten C-HRP); for IC50 (standard concentration which produces 50% B/B0): 25° C. 1 hour; for % B/B0 / A450: Conjugate II
Experimental: (§1) An aqueous solution of immunogen II was formulated with Freund's Complete Adjuvant (FCA) to form an emulsion consisting of 2 mg/ml immunogen in 50% (v/v) FCA. Three sheep were immunised with this emulsion (1° immunisation), 0.25 ml being intramuscularly injected at each of four sites in the rump of each animal. Subsequent immunizations (boosts) contained 1 mg/ml immunogen. All boosts were emulsified in 50% (v/v) Freund's Incomplete Adjuvant (FIA) and were administered in the same manner as the 1° immunisation, at monthly intervals for 1 year. Blood sampling took place 7 to 14 days after each boost. Each sample was processed to produce antiserum, which was further purified by caprylic acid and ammonium sulfate precipitation to yield an immunoglobulin (Ig) fraction. The Ig fraction was evaluated by competitive ELISA microtiter plate assay, as described in Example 12 below.
The wells of an enhanced binding 96 well polystyrene microtiter plate were coated with the Ig fraction of the antiserum raised to immunogen II (hapten A-BTG) (Example 8), diluted in 10 mM Tris, pH8.5 (125 μl/well). The appropriate antibody coating dilution was determined using standard ELISA checkerboard techniques. The plate was incubated for 2 hours at 37° C., washed 4 times with Tris buffered saline containing Tween 20 (TBST) and tapped dry. […]
75 μl of conjugate C (hapten C-HRP) (Example 10), diluted in Tris buffer (pH 7.2) containing EDTA, D-mannitol, sucrose, thimerosal and BSA, was added to each of the wells, as shown in FIG. 8. The appropriate dilution of conjugate was also determined using standard ELISA checkerboard techniques.
The plate was incubated at 25° C. for 1 hour. Excess unbound conjugate was removed by washing 6 times over a 10-15 minute period with TBST.
125 μl of tetramethylbenzidine (TMB) substrate solution was added to each well of the plate that was then incubated for 20 minutes in the dark at room temperature. The reaction was terminated by addition of 100 ul 0.2 M H2SO4 to each well. The absorbance was then measured at 450 nm using a microtiter plate reader.

[2] = tested on: Ig fraction of the antiserum raised to immunogen II (hapten A-BTG); experiment: competitive ELISA microtiter plate assay, antiserum to immunogen II with conjugate I (hapten A-HRP); format: binding, sheep; conditions: for % CR (percentage cross-reactivity based on specificity to leucomalachite green) / IC50 (standard concentration which produces 50% B/B0): Conjugate I (hapten A-HRP); for IC50 (standard concentration which produces 50% B/B0): 37° C. 2 hours; for % B/B0 / A450: Conjugate I
Experimental: as §1
The wells of an enhanced binding 96 well polystyrene microtiter plate were coated with the Ig fraction of the antiserum raised to immunogen II (hapten A-BTG) (Example 8), diluted in 10 mM Tris, pH8.5 (125 μl/well). The appropriate antibody coating dilution was determined using standard ELISA checkerboard techniques. The plate was incubated for 2 hours at 37° C., washed 4 times with Tris buffered saline containing Tween 20 (TBST) and tapped dry. Standard solutions of leucomalachite green and malachite green were prepared in TBST at 0, 5, 10, 50, 100, 250, 500 and 1000 ng/ml, and 50 μl of each was added to the appropriate wells (FIG. 8).
75 μl of conjugate I (hapten A-HRP) (Example 9), diluted in Tris buffer (pH 7.2) containing EDTA, D-mannitol, sucrose, thimerosal and BSA, was added to each of the wells, as shown in FIG. 8. The appropriate dilution of conjugate was also determined using standard ELISA checkerboard techniques. The plate was incubated at 37° C. for 2 hours. Excess unbound conjugate was removed by washing 6 times over a 10 minute period with TBST. 125 μl of tetramethylbenzidine (TMB) substrate solution was added to each well of the plate that was then incubated for 15 to 20 minutes in the dark at room temperature. The reaction was terminated by addition of 125 μl 0.2M H2SO4 to each well. The absorbance was then measured at 450 nm using a microtiter plate reader.

Bioo Kit antibodies = conditions: information provided by Bioo Scientific; kit designed to detect malachite green only; cited from earlier work
[3] = standard concentration 0.5 ng/ml
[4] = standard concentration 10 ng/ml
[5] = standard concentration 50 ng/ml
[6] = standard concentration 100 ng/ml
[7] = standard concentration 250 ng/ml
[8] = standard concentration 500 ng/ml
[9] = standard concentration 1000 ng/ml

| Structure (SMILES) | % CR (percentage cross-reactivity based on specificity to leucomalachite green) [1] | IC50 (standard concentration which produces 50% B/B0) [1] | % B/B0 [1, 3] | A450 [1, 3] | % B/B0 ([1]; standard concentration 1 ng/ml) | A450 ([1]; standard concentration 1 ng/ml) | % B/B0 ([1]; standard concentration 5 ng/ml) | A450 ([1]; standard concentration 5 ng/ml) | % B/B0 [1, 4] | A450 [1, 4] | % B/B0 [1, 5] | A450 [1, 5] | % CR (percentage cross-reactivity based on specificity to leucomalachite green) [2] | IC50 (standard concentration which produces 50% B/B0) [2] | % B/B0 ([2]; standard concentration 5 ng/ml) | A450 ([2]; standard concentration 5 ng/ml) | % B/B0 [2, 4] | A450 [2, 4] | % B/B0 [2, 5] | A450 [2, 5] | also measured |
| --- | --- | --- | --- | --- | --- | --- | --- | --- | --- | --- | --- | --- | --- | --- | --- | --- | --- | --- | --- | --- | --- |
| CN(C)c1ccc(C(=C2C=CC(=[N+](C)C)C=C2)c2ccccc2)cc1 [Malachite Green, malachite green] | 26.8% | 0.013962 mg/L | 95% | 1.611 | 89% | 1.504 | 67% | 1.137 | 57% | 0.967 | 29% | 0.497 | 26.43% | 0.10339 mg/L | 85.2% | 1.440 | 82.3% | 1.392 | 63.6% | 1.075 | % B/B0 [1, 6]: 20%; A450 [1, 6]: 0.342; % B/B0 [1, 7]: 13%; A450 [1, 7]: 0.227; % B/B0 [1, 8]: 11%; A450 [1, 8]: 0.184; % B/B0 [1, 9]: 7%; A450 [1, 9]: 0.113; % B/B0 [2, 6]: 51.4%; A450 [2, 6]: 0.869; % B/B0 [2, 7]: 39.3%; A450 [2, 7]: 0.664; % B/B0 [2, 8]: 30.8%; A450 [2, 8]: 0.520; % B/B0 [2, 9]: 24.6%; A450 [2, 9]: 0.416 |
| CN(C)c1ccc(C(c2ccccc2)c2ccc(N(C)C)cc2)cc1 [Leucomalachite Green, leucomalachite green] | 100% | 0.00374 mg/L | 90% | 1.550 | 77% | 1.323 | 45% | 0.772 | 31% | 0.538 | 11% | 0.184 | 100% | 0.02733 mg/L | 76.0% | 1.378 | 67.5% | 1.225 | 42.0% | 0.762 | cross-reactivity (Bioo Kit antibodies): 1%; % B/B0 [2, 6]: 30.2%; A450 [2, 6]: 0.547; % B/B0 [2, 7]: 20.2%; A450 [2, 7]: 0.366; % B/B0 [2, 8]: 13.6%; A450 [2, 8]: 0.247; % B/B0 [2, 9]: 9.8%; A450 [2, 9]: 0.178 |
